# Data taken from patent publication US20040265840A1, “Preservation of RNA quality and content in tissue sections during immunohistochemistry” (priority 2002, published 2004).
# Test system: RNase activity in a processed tissue
# Test: Inhibition of RNase activity in processed tissue during IHC staining
# Conditions: compared to other commercially available RNase inhibitors
# Experimental: In one embodiment of the invention, the invention provides methods that preserve or maintain RNA quality and content in an IHC sample, such as for LCM, by use of a ribonucleoside vanadyl complex (RVC) as an RNase inhibitor. […] Use of RVCs is preferred in the practice of the invention over other RNase inhibitors and allows for performance of IHC staining of samples for LCM and downstream gene expression analysis.
# The immunostaining was performed on frozen, acetone fixed, sections. RVCs (Ribonucleoside Vanadyl Complexes, Sigma catalog #R3380; Berger et al. Biochemistry 1979, 18:51431; Pukas et al., Biochemistry 1982, 21:46023) at 20 mM were added to all the acts of the staining including primary antibody solution, secondary antibody solution, and rinsing solutions (phosphate buffered saline or PBS). The processing was as follows:
# IHC staining was performed on frozen, acetone fixed sections. All reagent solutions were prepared with nuclease free PBS containing a RVC RNase inhibitor and kept at +4° C. The slides were removed from −80° C. storage, 30 seconds are allowed for the condensation to disappear prior to fixing. The staining procedure was done at +4° C. by keeping the slides on a cold block through all parts of the procedure: […]
substance,measurement,value
Ribonucleoside Vanadyl Complexes [RVCs],inhibition of RNase activity in a processed tissue,superior inhibition of RNase activity
